Where “and” joins values, the source holds several entries; their conditions need not be identical. Identical values can stand only once.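 How tested: cells in 96-well plates exposed to compound for 48 hours at five concentrations. GI50 marks 50% less growth. TGI: concentration producing complete growth inhibition.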
Tests used:
Test in all cases: growth of human tumour cells (NCI), 48 h
CAKI-1 renal = system: CAKI-1 renal
CCRF-CEM leukemia = system: CCRF-CEM leukemia
HL-60(TB) leukemia = system: HL-60(TB) leukemia
HOP-62 NSCLC = system: HOP-62 NSCLC
MCF7 breast = system: MCF7 breast
PC-3 prostate = system: PC-3 prostate
SF-268 CNS = system: SF-268 CNS
SK-MEL-2 melanoma = system: SK-MEL-2 melanoma
SK-MEL-5 melanoma = system: SK-MEL-5 melanoma
SNB-19 CNS = system: SNB-19 CNS

Cc1ccc2c(c1)O/C(=C\c1ccc([N+](=O)[O-])o1)C2=O
GI50 (CAKI-1 renal): 1.41 µM
TGI (CAKI-1 renal): 2.94 µM
GI50 (CCRF-CEM leukemia): 0.424 µM
TGI (CCRF-CEM leukemia): 2.61 µM
GI50 (HL-60(TB) leukemia): 1.92 µM
TGI (HL-60(TB) leukemia): 5.09 µM
GI50 (HOP-62 NSCLC): 2.27 µM
TGI (HOP-62 NSCLC): 6.48 µM
GI50 (MCF7 breast): 0.432 µM
TGI (MCF7 breast): 2.01 µM
GI50 (PC-3 prostate): 1.75 µM
TGI (PC-3 prostate): 5.15 µM
GI50 (SF-268 CNS): 1.91 µM
TGI (SF-268 CNS): 5.03 µM
GI50 (SK-MEL-2 melanoma): 1.9 µM
TGI (SK-MEL-2 melanoma): 3.72 µM
GI50 (SK-MEL-5 melanoma): 1.61 µM
TGI (SK-MEL-5 melanoma): 3.04 µM
GI50 (SNB-19 CNS): 3.98 µM
TGI (SNB-19 CNS): 21.6 µM

Nc1ccc2ccc(NS(=O)(=O)N3CCCCC3)cc2c1
GI50 (CAKI-1 renal): 0.584 µM
TGI (CAKI-1 renal): > 100 µM
GI50 (CCRF-CEM leukemia): 0.46 µM
TGI (CCRF-CEM leukemia): > 100 µM
GI50 (HL-60(TB) leukemia): 0.327 µM
TGI (HL-60(TB) leukemia): > 100 µM
TGI (HOP-62 NSCLC): > 100 µM
GI50 (MCF7 breast): 0.295 µM
TGI (MCF7 breast): > 100 µM
GI50 (PC-3 prostate): 1.28 µM
TGI (PC-3 prostate): > 100 µM
GI50 (SF-268 CNS): 1.57 µM
TGI (SF-268 CNS): > 100 µM
TGI (SK-MEL-2 melanoma): > 100 µM
GI50 (SK-MEL-5 melanoma): 0.285 µM
TGI (SK-MEL-5 melanoma): 4.52 µM
GI50 (SNB-19 CNS): 0.797 µM
TGI (SNB-19 CNS): > 100 µM

CCOc1ccc2ccc3cccnc3c2n1
TGI (CAKI-1 renal): > 100 µM
TGI (CCRF-CEM leukemia): > 100 µM
TGI (HL-60(TB) leukemia): > 100 µM
TGI (HOP-62 NSCLC): 61.4 µM
TGI (MCF7 breast): 45.8 µM
TGI (PC-3 prostate): > 100 µM
TGI (SF-268 CNS): > 100 µM
TGI (SK-MEL-2 melanoma): > 100 µM
TGI (SK-MEL-5 melanoma): > 100 µM
TGI (SNB-19 CNS): > 100 µM

[C-]#[N+][C@]12C(=O)[C@H](CCC1(C)C)C(C)(C)[C@H]1C(=O)N(C)c3cccc2c31
GI50 (CAKI-1 renal): 51.7 µM
TGI (CAKI-1 renal): > 100 µM
GI50 (CCRF-CEM leukemia): 5.84 µM
TGI (CCRF-CEM leukemia): > 100 µM
GI50 (HL-60(TB) leukemia): 4.07 µM
TGI (HL-60(TB) leukemia): > 100 µM
GI50 (HOP-62 NSCLC): 9.6 µM
TGI (HOP-62 NSCLC): > 100 µM
GI50 (MCF7 breast): 4.54 µM
TGI (MCF7 breast): > 100 µM
GI50 (PC-3 prostate): 3.27 µM
TGI (PC-3 prostate): > 100 µM
GI50 (SF-268 CNS): > 100 µM
TGI (SF-268 CNS): > 100 µM
GI50 (SK-MEL-2 melanoma): 30.6 µM
TGI (SK-MEL-2 melanoma): > 100 µM
GI50 (SK-MEL-5 melanoma): 9.08 µM
TGI (SK-MEL-5 melanoma): > 100 µM
GI50 (SNB-19 CNS): 70 µM
TGI (SNB-19 CNS): > 100 µM

O=C1c2ccn(CCCCN3CCCCC3)c2C(=O)c2c1c(O)c1ccccc1c2O
GI50 (CAKI-1 renal): 1.63 µM
TGI (CAKI-1 renal): 3.83 µM
GI50 (CCRF-CEM leukemia): 1.95 µM
TGI (CCRF-CEM leukemia): 4.61 µM
GI50 (HL-60(TB) leukemia): 24.5 µM
TGI (HL-60(TB) leukemia): > 100 µM
GI50 (HOP-62 NSCLC): 13.4 µM
TGI (HOP-62 NSCLC): 35.4 µM
GI50 (MCF7 breast): 14.2 µM
TGI (MCF7 breast): > 62.3 µM
GI50 (PC-3 prostate): 4.76 µM
TGI (PC-3 prostate): 18.1 µM
GI50 (SF-268 CNS): 14.9 µM
TGI (SF-268 CNS): 42.7 µM
GI50 (SK-MEL-2 melanoma): > 100 µM
TGI (SK-MEL-2 melanoma): > 100 µM
GI50 (SK-MEL-5 melanoma): 13.3 µM
TGI (SK-MEL-5 melanoma): 33.9 µM
GI50 (SNB-19 CNS): 19.1 µM
TGI (SNB-19 CNS): > 90.5 µM

O=C(Nc1ccccc1O)c1ccc(CNC(=O)c2sccc2Nc2ccnc(C(F)(F)F)c2)cc1
GI50 (CAKI-1 renal): 6.63 µM
TGI (CAKI-1 renal): 23.9 µM
GI50 (CCRF-CEM leukemia): 1.01 µM
TGI (CCRF-CEM leukemia): > 100 µM
GI50 (HL-60(TB) leukemia): 6.27 µM
TGI (HL-60(TB) leukemia): 44.8 µM
GI50 (HOP-62 NSCLC): 10.9 µM
TGI (HOP-62 NSCLC): 42.7 µM
GI50 (MCF7 breast): 2.65 µM
TGI (MCF7 breast): 41.8 µM
GI50 (PC-3 prostate): 4.56 µM
TGI (PC-3 prostate): 36.8 µM
GI50 (SF-268 CNS): 7.04 µM
TGI (SF-268 CNS): 27.7 µM
GI50 (SK-MEL-2 melanoma): 6.97 µM
TGI (SK-MEL-2 melanoma): 28.5 µM
GI50 (SK-MEL-5 melanoma): 1.94 µM
TGI (SK-MEL-5 melanoma): 4.7 µM
GI50 (SNB-19 CNS): 13.2 µM
TGI (SNB-19 CNS): 31.1 µM

O=C1C(=O)c2ccccc2C(O)=C1CC=C(Cl)Cl
GI50 (CAKI-1 renal): 7.47 µM and 7.14 µM
TGI (CAKI-1 renal): 65.6 µM and 136 µM and > 100 µM
GI50 (CCRF-CEM leukemia): 1.57 µM and 4.69 µM
TGI (CCRF-CEM leukemia): 52.1 µM and 162 µM and > 100 µM
GI50 (HL-60(TB) leukemia): 3.24 µM and 13.3 µM
TGI (HL-60(TB) leukemia): 37.8 µM and > 76.6 µM and 56.6 µM
GI50 (HOP-62 NSCLC): 9.44 µM and 14 µM
TGI (HOP-62 NSCLC): 64.1 µM and 61 µM and > 100 µM
GI50 (MCF7 breast): 5.15 µM and 4.73 µM
TGI (MCF7 breast): > 58.5 µM and 131 µM and > 100 µM
GI50 (PC-3 prostate): 4.7 µM and 2.85 µM
TGI (PC-3 prostate): > 48.8 µM and 134 µM and 72.9 µM
GI50 (SF-268 CNS): 9.02 µM and 7.72 µM
TGI (SF-268 CNS): 202 µM and > 100 µM
GI50 (SK-MEL-2 melanoma): 22.1 µM
TGI (SK-MEL-2 melanoma): 44.3 µM and 47.1 µM and 63.9 µM
GI50 (SK-MEL-5 melanoma): 3.54 µM
TGI (SK-MEL-5 melanoma): 22.6 µM and 43 µM and 21.6 µM
GI50 (SNB-19 CNS): 7.46 µM and 9.74 µM
TGI (SNB-19 CNS): > 90.5 µM and 204 µM and > 100 µM

O=C(Nc1cccc(O)c1)c1cccc(NC2=C(Cl)C(=O)N(Cc3ccccc3)C2=O)c1
GI50 (CAKI-1 renal): 0.318 µM
TGI (CAKI-1 renal): 0.806 µM
GI50 (CCRF-CEM leukemia): 0.513 µM
TGI (CCRF-CEM leukemia): > 100 µM
GI50 (HL-60(TB) leukemia): 4.88 µM
TGI (HL-60(TB) leukemia): 27.9 µM
GI50 (HOP-62 NSCLC): 19.2 µM
TGI (HOP-62 NSCLC): 33.6 µM
GI50 (MCF7 breast): 23.4 µM
TGI (MCF7 breast): 59.9 µM
GI50 (PC-3 prostate): 8.29 µM
TGI (PC-3 prostate): 25 µM
GI50 (SF-268 CNS): 21.8 µM
TGI (SF-268 CNS): 54.2 µM
GI50 (SK-MEL-2 melanoma): 4.63 µM
TGI (SK-MEL-2 melanoma): 19.3 µM
GI50 (SK-MEL-5 melanoma): 6.09 µM
TGI (SK-MEL-5 melanoma): 20.1 µM
GI50 (SNB-19 CNS): 18.8 µM
TGI (SNB-19 CNS): 41.4 µM

COc1ccc(Cl)cc1NC(=O)c1cccc([N+](=O)[O-])c1O
TGI (CAKI-1 renal): > 64.8 µM
TGI (CCRF-CEM leukemia): > 100 µM
TGI (HL-60(TB) leukemia): > 69.6 µM
TGI (HOP-62 NSCLC): 21.4 µM
TGI (MCF7 breast): 66.2 µM
TGI (PC-3 prostate): > 100 µM
TGI (SF-268 CNS): > 100 µM
TGI (SK-MEL-2 melanoma): 24.8 µM
TGI (SK-MEL-5 melanoma): 14.7 µM
TGI (SNB-19 CNS): > 100 µM

CC(C)(C)OC(=O)CN1CCc2c(sc3ncnc(N/N=C/c4cccc5ccccc45)c23)C1
GI50 (CAKI-1 renal): 3.3 µM
TGI (CAKI-1 renal): 18.7 µM
GI50 (CCRF-CEM leukemia): 1.56 µM
TGI (CCRF-CEM leukemia): > 33.3 µM
GI50 (HL-60(TB) leukemia): 2.55 µM
TGI (HL-60(TB) leukemia): 19.2 µM
GI50 (HOP-62 NSCLC): 2.31 µM
TGI (HOP-62 NSCLC): 11.4 µM
GI50 (MCF7 breast): 0.923 µM
TGI (MCF7 breast): 2.85 µM
GI50 (PC-3 prostate): 2.04 µM
TGI (PC-3 prostate): > 33.3 µM
GI50 (SF-268 CNS): 3.59 µM
TGI (SF-268 CNS): 24.3 µM
GI50 (SK-MEL-2 melanoma): 5 µM
TGI (SK-MEL-2 melanoma): 12.3 µM
GI50 (SK-MEL-5 melanoma): 4.08 µM
TGI (SK-MEL-5 melanoma): 8.28 µM
GI50 (SNB-19 CNS): 4.73 µM
TGI (SNB-19 CNS): 32.1 µM

O=S(=O)(O)c1cc(N=Nc2cc(S(=O)(=O)O)c3cccnc3c2O)ccc1/C=C/c1ccc(N=Nc2cc(S(=O)(=O)O)c3cccnc3c2O)cc1S(=O)(=O)O
TGI (CAKI-1 renal): > 100 µM
TGI (CCRF-CEM leukemia): 52.5 µM
TGI (HL-60(TB) leukemia): 56.5 µM
TGI (HOP-62 NSCLC): > 100 µM
TGI (MCF7 breast): > 100 µM
TGI (PC-3 prostate): > 100 µM
TGI (SF-268 CNS): > 100 µM
TGI (SK-MEL-2 melanoma): > 100 µM
TGI (SK-MEL-5 melanoma): > 100 µM
TGI (SNB-19 CNS): > 100 µM

CCOC(=O)N[C@H]1CCc2c(Br)c(OC)c(OC)c(OC)c2-c2ccc(SC)c(=O)cc21
GI50 (CAKI-1 renal): < 0.0228 µM
TGI (CAKI-1 renal): 19.6 µM
GI50 (CCRF-CEM leukemia): < 0.01 µM
TGI (CCRF-CEM leukemia): > 42 µM
GI50 (HL-60(TB) leukemia): < 0.01 µM
TGI (HL-60(TB) leukemia): 0.0131 µM
GI50 (HOP-62 NSCLC): 0.0232 µM
TGI (HOP-62 NSCLC): 41.2 µM
GI50 (MCF7 breast): < 0.01 µM
TGI (MCF7 breast): 12.7 µM
GI50 (PC-3 prostate): < 0.01 µM
TGI (PC-3 prostate): > 44.5 µM
GI50 (SF-268 CNS): 0.0125 µM
TGI (SF-268 CNS): 15 µM
GI50 (SK-MEL-5 melanoma): < 0.01 µM
TGI (SK-MEL-5 melanoma): 0.0237 µM
GI50 (SNB-19 CNS): < 0.01 µM
TGI (SNB-19 CNS): 26.5 µM

Cc1cc(C)cc(Nc2ccc([N+](=O)[O-])c(NCCN3CCOCC3)n2)c1
GI50 (CAKI-1 renal): 0.00163 µM
TGI (CAKI-1 renal): > 100 µM
GI50 (CCRF-CEM leukemia): 0.00392 µM and 0.0331 µM
TGI (CCRF-CEM leukemia): > 100 µM
GI50 (HL-60(TB) leukemia): 0.00261 µM
TGI (HL-60(TB) leukemia): 0.00926 µM
TGI (HOP-62 NSCLC): 44.9 µM
GI50 (MCF7 breast): 0.000327 µM
TGI (MCF7 breast): > 100 µM
GI50 (PC-3 prostate): 0.00177 µM and 0.0106 µM
TGI (PC-3 prostate): > 100 µM
TGI (SF-268 CNS): 85.2 µM
TGI (SK-MEL-2 melanoma): > 100 µM
GI50 (SK-MEL-5 melanoma): 0.00082 µM
TGI (SK-MEL-5 melanoma): 0.0332 µM and 0.256 µM
